The assay is described as follows: Inhibition of human 11-beta HSD in microsomes from HEK293 cells by SPA method.
Molecule `CC1(C)CCCN(C(=O)c2cccc(COc3c(Cl)cc(Cl)cc3Cl)n2)C1` came in with an IC50 of 6.5 nM. This lies in the single-digit nanomolar range. Next, `CC1(C)CCCN(C(=O)c2cccc(-c3ccc(OC(F)(F)F)cc3)n2)C1`: 1.1 nM. To `CC1CCN(C(=O)c2cccc(S(=O)(=O)c3ccccc3Cl)n2)CC1` belongs 4670 nM; to `O=C(c1cccc(COc2c(Cl)cccc2Cl)n1)N1CCCC2CCCCC21` (stereo unspecified), 4.6 nM; to `O=C(c1cncc(CS(=O)(=O)c2c(Cl)cccc2Cl)c1)N1CCCCCC1`, 21 nM. To `CC1CCN(C(=O)c2cccc(Nc3ccccc3Cl)n2)CC1` belongs 381 nM. In turn, `O=C(c1cncc(CS(=O)(=O)c2c(Cl)cccc2Cl)c1)N1CCCCCCC1` showed an IC50 of 11 nM.

Molecule `CC1CCN(C(=O)c2cccc(Oc3ccccc3Cl)n2)CC1` displayed an IC50 of 282 nM. Next, `CC1CCN(C(=O)c2ccc(CS(=O)(=O)c3c(Cl)cccc3Cl)cn2)CC1`: 2130 nM; `CC1CCN(C(=O)c2cc(CS(=O)(=O)c3c(Cl)cccc3Cl)ccn2)CC1`: 319 nM. To `O=C(c1cccc(-c2ccccc2-c2ccccc2)n1)N1CCCC2CCCCC21` (stereo unspecified) belongs 4.7 nM; to `CC1(C)C[C@H]2C[C@](C)(CN2C(=O)c2cncc(COc3c(Cl)cccc3Cl)c2)C1`, 1.7 nM; to `CC1CCN(C(=O)c2cccc(COc3c(Cl)cccc3Cl)n2)CC1`, 79 nM. To `O=C(c1cncc(CS(=O)(=O)c2c(Cl)cccc2Cl)c1)N1CCCCCCCC1` belongs 2.5 nM. On to `CC1CCN(C(=O)c2cccc(CSc3c(Cl)cccc3Cl)n2)CC1`, for which the IC50 was 7.2 nM. To `O=C(c1cncc(CS(=O)(=O)c2c(Cl)cccc2Cl)c1)N1CCCC1` belongs 2140 nM. Next, `O=C(c1cccc(-c2ccccc2[N+](=O)[O-])n1)N1CCCC2CCCCC21` (stereo unspecified): 2 nM. For the molecule `CC1CCN(C(=O)c2cccc(CS(=O)(=O)c3c(Cl)cccc3Cl)c2)CC1`, the IC50 stood at 13 nM. Next, `O=C(c1cncc(COc2c(Cl)cccc2Cl)c1)N1CCCCC1c1cccnc1` (stereo unspecified): 2 nM; `Cc1ccc(-c2cccc(C(=O)N3CCCC(C)(C)C3)n2)cc1F`: 0.1 nM; `CC1CCN(C(=O)c2cccc(Sc3ccccc3Cl)n2)CC1`: 218 nM. To `CC1CCN(C(=O)c2cncc(CS(=O)(=O)c3c(Cl)cccc3Cl)c2)CC1` belongs 22 nM. To `O=C(c1cncc(CS(=O)(=O)c2c(Cl)cccc2Cl)c1)N1CCCCC1` belongs 220 nM; to `CC1(C)CCCN(C(=O)c2cccc(-c3ccccc3Cl)n2)C1`, 2.9 nM; to `CC1CCN(C(=O)c2ccnc(CS(=O)(=O)c3c(Cl)cccc3Cl)c2)CC1`, 106 nM.

`CC1(C)CCCN(C(=O)c2cccc(-c3ccc(Cl)cc3)n2)C1` registered a half-inhibitory concentration (IC50) of 1.1 nM. Next, `CC1CCN(C(=O)c2ccc(CSc3ccc(Cl)cc3)cc2)CC1`: 235 nM; `O=C(c1cncc(CS(=O)(=O)c2c(Cl)cccc2Cl)c1)N1CCOCC1`: greater than 10000 nM. Molecule `O=C(c1cccc(-c2ccc(C(F)(F)F)cc2)n1)N1CCCC2CCCCC21` (stereo unspecified) returned a 50% inhibitory concentration (IC50) of 3.6 nM. To `NC(=O)C1CCN(C(=O)c2cncc(CS(=O)(=O)c3c(Cl)cccc3Cl)c2)CC1` belongs 2350 nM. To `CC1CCN(C(=O)c2ccc(CS(=O)(=O)c3c(Cl)cccc3Cl)nc2)CC1` belongs 2050 nM.

Usually IC50 stands for the concentration at which inhibition is half-maximal. A low value points to greater potency.

Values taken from ChEMBL document CHEMBL1145557, “Pyridine amides as potent and selective inhibitors of 11beta-hydroxysteroid dehydrogenase type 1” (Bioorg Med Chem Lett, 2008).
